The values that follow come from patent publication US7767240B2, “Microbiological control in poultry processing” (priority 2001, dated 2010).

Holding throughout (assay type): cell-based
In assay [1] the test system is planktonic HPC (heterotrophic plate count) bacteria. In words: HPC bacteria eradication in planktonic form, PVC sampling pipes. The source says: (§1) In another group of tests, the results of which are depicted in FIGS. 5 through 10, several bromine-based microbiocides of this invention were utilized in tests illustrating their effectiveness in eradicating or controlling Heterotrophic Plate Count bacteria i.e., a mixture of naturally-occurring pathogenic bacteria of various unidentified species. These bacteria were challenged both in the form of biofilms and in planktonic form.
(§2) The experimental conditions utilized in these tests involved use of an apparatus consisting of three parallel transparent PVC sampling pipes. These pipes were used for collection of biofilm (i.e., sessile or surface attached) bacteria samples; one as control pipe, one for a relatively low biocide concentration and the third for a higher biocide concentration. The biocide challenge in each case was divided into three phases. First was a 14-day inoculation. Next was a 48-hour disinfection period. Finally a 2-week recovery period was provided. The biocide under test was slug-dosed and during the first hour of exposure, the concentration was adjusted to achieve the desired concentration level.
(§3) The source of the naturally-grown heterotrophic plate count (HPC) bacteria was sediment and associated water collected from the recirculating hot water system of a hospital. […]

The subject of assay [2] is Escherichia coli field strain. In words: Whole bird bacteria reduction, chill tank (Example 2). Conditions: 1.5 h chill tank. Here is the method: (§4) The trial events and experimental design used were as follows: • a) For all treatments a total of 190 birds were processed in a normal fashion. Each treatment involved use of 10 birds. • b) A warm (100° F.) bath was prepared containing 5×10^4 DelMarVa (Delaware-Maryland farm area) field Escherichia coli stain bacteria per mL. At least 200 mL of total bath fluid was provided for each bird. • c) All birds (both controls and treated) were randomly immersed into the warm bath. Both the inside and outside carcass areas were immersed to assure complete coverage. • d) Each separate chill tank water solution (normal tap water adjusted pH to 8.5, ice added to produce temperatures of <45° F.) contained 2×10^3 per mL bacteria. • e) The chill tank water solutions (at least 750 mL each) were be prepared for each disinfecting treatment, and birds were immersed for a period of 1.5 hours. • f) Each 10 minutes during the 1.5 hour chilling period, the birds were completely lifted out of solution and then reimersed in the solution. After the 1.5 hour chilling period, the birds were taken from the chill water and drained for 30 seconds, then promptly (within 5 minutes) placed into a sterile whole bird stomacher bag containing 400 mL diluent (Butterfield's Phosphate Diluent) bacteria collection. • g) Diluent (400 mL) was added to each carcass contained in a sterile stomacher bag while making sure to pour the diluent into the inside of the abdominal cavity. The carcass was rinsed inside and out with a rocking motion for one minute (ca. 35 RPM). […] After the fluids had been diluted, 0.1 mL of fluid was be placed on a MacConkey agar plate and bacteria counts determined. In cases where the goal of a 25-250 count on the plate was not achieved, another dilution and replating were conducted. • j) After all carcasses for each treatment had been dipped, water sample bacteria were determined. • k) Total bacteria per bird were calculated. […]

The test system of assay [3] is biofilm-associated HPC (heterotrophic plate count) bacteria. In words: HPC bacteria eradication in biofilm, PVC sampling pipes.
Source text: as §1, §2, §3

In assay [4] the test system is Escherichia coli field strain. In words: Chill water bacteria reduction (Example 2). Here is the method:
as §4

The mark [5] stands for this setting: 0.5 ppm as bromine, within three hours.
The mark [6] stands for this setting: 5 ppm as bromine, within twelve hours.

As to `CC1(C)C(=O)N(Br)C(=O)N1Br` [DBDMH, 1,3-dibromo-5,5-dimethylhydantoin], the “planktonic HPC bacteria eradicated” value in assay [1] (setting [5]) is listed as ~99%; in assay [1] (setting [6]), ~99.99%. In addition, the “Whole Bird Bacteria Reduction (%)” value in assay [2] (50 ppm Cl2 (equivalent)), in assay [2] (100 ppm Cl2 (equivalent)) and in assay [2] (150 ppm Cl2 (equivalent)) was 99.9999% each time. Moreover, the figures for the “biofilm-associated HPC bacteria eradicated” value in assay [3] (setting [5]) and in assay [3] (setting [6]) were “over 99%” and ~99.9%, respectively. The “Mean Chill Water Bacteria Reduction (%)” value in assay [4] (50 ppm Cl2 (equivalent)), in assay [4] (100 ppm Cl2 (equivalent)) and in assay [4] (150 ppm Cl2 (equivalent)) was 99.9999% each time.
